Results published in the supplement of paper PMC10307832.

What was measured:
Assay in all cases: relative viability (nuclei count vs DMSO), 5 days (fraction); higher = more cells survive
[1] = compound: Cn1cc(-c2cnn3c(N)c(Br)c([C@@H]4CCCNC4)nc23)cn1 + C[C@@H](Oc1cc(-c2cnn(C3CCNCC3)c2)cnc1N)c1c(Cl)ccc(F)c1Cl [Crizotinib] (partner 1 µM)
In short: (§1)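 The day after seeding in 1536-well plates, lung cancer cell lines were treated by pin tool with a single drug, or with a fixed anchor-drug dose together with five library-drug doses (not always all listed) in √10 steps. After 5 days, a combined fix-and-stain solution (final 0.05% Triton X-100, 1% formaldehyde, 1 ug/ml Hoechst) was added. Nuclei counted on 4× images gave relative viability as treated counts over vehicle counts, reported as the median of duplicate plates.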

[2] = compound: Cn1cc(-c2cnn3c(N)c(Br)c([C@@H]4CCCNC4)nc23)cn1 + O=C(CCCCCCC(=O)Nc1ccccc1)NO [Vorinostat] (partner 1 µM)
In short: as §1

[3] = compound: Cn1cc(-c2cnn3c(N)c(Br)c([C@@H]4CCCNC4)nc23)cn1 + CC1(C)CCC(c2ccc(Cl)cc2)=C(CN2CCN(c3ccc(C(=O)NS(=O)(=O)c4ccc(N[C@H](CCN5CCOCC5)CSc5ccccc5)c(S(=O)(=O)C(F)(F)F)c4)cc3)CC2)C1 [Navitoclax] (partner 0.5 µM)
In short: as §1

[4] = compound: Cn1cc(-c2cnn3c(N)c(Br)c([C@@H]4CCCNC4)nc23)cn1 + Cc1cc(Nc2cc(N3CCN(C)CC3)nc(Sc3ccc(NC(=O)C4CC4)cc3)n2)n[nH]1 [Tozasertib] (partner 0.1 µM)
In short: as §1

NCI-H1437
relative viability ([1]; first compound 0.05 µM): 1.09 | relative viability ([1]; first compound 0.1581 µM): 1.05 | relative viability ([1]; first compound 0.5 µM): 0.967 | relative viability ([1]; first compound 1.581 µM): 0.693 | relative viability ([1]; first compound 5 µM): 0.849 | relative viability ([2]; first compound 0.05 µM): 0.907 | relative viability ([2]; first compound 0.1581 µM): 0.927 | relative viability ([2]; first compound 0.5 µM): 0.955 | relative viability ([2]; first compound 1.581 µM): 0.692 | relative viability ([2]; first compound 5 µM): 0.508 | relative viability ([3]; first compound 0.05 µM): 1.15 | relative viability ([3]; first compound 0.1581 µM): 1.25 | relative viability ([3]; first compound 0.5 µM): 1.05 | relative viability ([3]; first compound 1.581 µM): 1.03 | relative viability ([3]; first compound 5 µM): 1.08 | relative viability ([4]; first compound 0.05 µM): 0.414 | relative viability ([4]; first compound 0.1581 µM): 0.46 | relative viability ([4]; first compound 0.5 µM): 0.402 | relative viability ([4]; first compound 1.581 µM): 0.361 | relative viability ([4]; first compound 5 µM): 0.381

UMC-11
relative viability ([1]; first compound 0.05 µM): 0.736 | relative viability ([1]; first compound 0.1581 µM): 0.504 | relative viability ([1]; first compound 0.5 µM): 0.623 | relative viability ([1]; first compound 1.581 µM): 0.392 | relative viability ([1]; first compound 5 µM): 0.262 | relative viability ([2]; first compound 0.05 µM): 0.331 | relative viability ([2]; first compound 0.1581 µM): 0.313 | relative viability ([2]; first compound 0.5 µM): 0.345 | relative viability ([2]; first compound 1.581 µM): 0.334 | relative viability ([2]; first compound 5 µM): 0.291 | relative viability ([3]; first compound 0.05 µM): 0.316 | relative viability ([3]; first compound 0.1581 µM): 0.268 | relative viability ([3]; first compound 0.5 µM): 0.298 | relative viability ([3]; first compound 1.581 µM): 0.271 | relative viability ([3]; first compound 5 µM): 0.229 | relative viability ([4]; first compound 0.05 µM): 0.276 | relative viability ([4]; first compound 0.1581 µM): 0.204 | relative viability ([4]; first compound 0.5 µM): 0.217 | relative viability ([4]; first compound 1.581 µM): 0.205 | relative viability ([4]; first compound 5 µM): 0.187

201T
relative viability ([1]; first compound 0.05 µM): 1.03 | relative viability ([1]; first compound 0.1581 µM): 1.03 | relative viability ([1]; first compound 0.5 µM): 1.06 | relative viability ([1]; first compound 1.581 µM): 1.05 | relative viability ([1]; first compound 5 µM): 1.07 | relative viability ([2]; first compound 0.05 µM): 0.938 | relative viability ([2]; first compound 0.1581 µM): 1.05 | relative viability ([2]; first compound 0.5 µM): 0.996 | relative viability ([2]; first compound 1.581 µM): 0.897 | relative viability ([2]; first compound 5 µM): 0.549 | relative viability ([3]; first compound 0.05 µM): 1.14 | relative viability ([3]; first compound 0.1581 µM): 1.18 | relative viability ([3]; first compound 0.5 µM): 1.16 | relative viability ([3]; first compound 1.581 µM): 1.32 | relative viability ([3]; first compound 5 µM): 1.22 | relative viability ([4]; first compound 0.05 µM): 0.932 | relative viability ([4]; first compound 0.1581 µM): 0.992 | relative viability ([4]; first compound 0.5 µM): 0.898 | relative viability ([4]; first compound 1.581 µM): 0.776 | relative viability ([4]; first compound 5 µM): 0.758

ChaGo-K-1
relative viability ([1]; first compound 0.05 µM): 1.15 | relative viability ([1]; first compound 0.1581 µM): 1.36 | relative viability ([1]; first compound 0.5 µM): 1.24 | relative viability ([1]; first compound 1.581 µM): 0.92 | relative viability ([1]; first compound 5 µM): 1.05 | relative viability ([2]; first compound 0.05 µM): 0.736 | relative viability ([2]; first compound 0.1581 µM): 0.785 | relative viability ([2]; first compound 0.5 µM): 0.779 | relative viability ([2]; first compound 1.581 µM): 0.687 | relative viability ([2]; first compound 5 µM): 0.753 | relative viability ([3]; first compound 0.05 µM): 0.966 | relative viability ([3]; first compound 0.1581 µM): 0.967 | relative viability ([3]; first compound 0.5 µM): 0.981 | relative viability ([3]; first compound 1.581 µM): 0.737 | relative viability ([3]; first compound 5 µM): 0.607 | relative viability ([4]; first compound 0.05 µM): 0.222 | relative viability ([4]; first compound 0.1581 µM): 0.22 | relative viability ([4]; first compound 0.5 µM): 0.227 | relative viability ([4]; first compound 1.581 µM): 0.224 | relative viability ([4]; first compound 5 µM): 0.225

NCI-H1650
relative viability ([1]; first compound 0.05 µM): 1.08 | relative viability ([1]; first compound 0.1581 µM): 0.909 | relative viability ([1]; first compound 0.5 µM): 1.29 | relative viability ([1]; first compound 1.581 µM): 0.709 | relative viability ([1]; first compound 5 µM): 0.477 | relative viability ([2]; first compound 0.05 µM): 0.594 | relative viability ([2]; first compound 0.1581 µM): 0.524 | relative viability ([2]; first compound 0.5 µM): 0.471 | relative viability ([2]; first compound 1.581 µM): 0.595 | relative viability ([2]; first compound 5 µM): 0.336 | relative viability ([3]; first compound 0.05 µM): 1.27 | relative viability ([3]; first compound 0.1581 µM): 1.23 | relative viability ([3]; first compound 0.5 µM): 1.25 | relative viability ([3]; first compound 1.581 µM): 0.845 | relative viability ([3]; first compound 5 µM): 0.67 | relative viability ([4]; first compound 0.1581 µM): 0.408 | relative viability ([4]; first compound 0.5 µM): 0.33 | relative viability ([4]; first compound 1.581 µM): 0.3 | relative viability ([4]; first compound 5 µM): 0.261

LOU-NH91
relative viability ([1]; first compound 0.05 µM): 0.727 | relative viability ([1]; first compound 0.1581 µM): 0.724 | relative viability ([1]; first compound 0.5 µM): 0.739 | relative viability ([1]; first compound 1.581 µM): 0.713 | relative viability ([1]; first compound 5 µM): 0.626 | relative viability ([2]; first compound 0.05 µM): 0.849 | relative viability ([2]; first compound 0.1581 µM): 0.911 | relative viability ([2]; first compound 0.5 µM): 0.908 | relative viability ([2]; first compound 1.581 µM): 0.863 | relative viability ([2]; first compound 5 µM): 0.703 | relative viability ([3]; first compound 0.05 µM): 0.732 | relative viability ([3]; first compound 0.1581 µM): 0.666 | relative viability ([3]; first compound 0.5 µM): 0.644 | relative viability ([3]; first compound 1.581 µM): 0.67 | relative viability ([3]; first compound 5 µM): 0.474 | relative viability ([4]; first compound 0.05 µM): 0.585 | relative viability ([4]; first compound 0.1581 µM): 0.585 | relative viability ([4]; first compound 0.5 µM): 0.609 | relative viability ([4]; first compound 1.581 µM): 0.683 | relative viability ([4]; first compound 5 µM): 0.497

HOP-62
relative viability ([1]; first compound 0.05 µM): 0.999 | relative viability ([1]; first compound 0.1581 µM): 1.07 | relative viability ([1]; first compound 0.5 µM): 1.01 | relative viability ([1]; first compound 1.581 µM): 0.925 | relative viability ([1]; first compound 5 µM): 0.884 | relative viability ([2]; first compound 0.05 µM): 0.698 | relative viability ([2]; first compound 0.1581 µM): 0.775 | relative viability ([2]; first compound 0.5 µM): 0.645 | relative viability ([2]; first compound 1.581 µM): 0.386 | relative viability ([2]; first compound 5 µM): 0.209 | relative viability ([3]; first compound 0.05 µM): 0.985 | relative viability ([3]; first compound 0.1581 µM): 1.18 | relative viability ([3]; first compound 0.5 µM): 1.16 | relative viability ([3]; first compound 1.581 µM): 0.97 | relative viability ([3]; first compound 5 µM): 0.479 | relative viability ([4]; first compound 0.05 µM): 0.334 | relative viability ([4]; first compound 0.1581 µM): 0.348 | relative viability ([4]; first compound 0.5 µM): 0.335 | relative viability ([4]; first compound 1.581 µM): 0.252 | relative viability ([4]; first compound 5 µM): 0.249

NCI-H1915
relative viability ([1]; first compound 0.05 µM): 0.674 | relative viability ([1]; first compound 0.1581 µM): 0.871 | relative viability ([1]; first compound 0.5 µM): 0.906 | relative viability ([1]; first compound 1.581 µM): 0.697 | relative viability ([1]; first compound 5 µM): 0.905 | relative viability ([2]; first compound 0.05 µM): 0.511 | relative viability ([2]; first compound 0.1581 µM): 0.535 | relative viability ([2]; first compound 0.5 µM): 0.666 | relative viability ([2]; first compound 1.581 µM): 0.574 | relative viability ([2]; first compound 5 µM): 0.432 | relative viability ([3]; first compound 0.05 µM): 0.796 | relative viability ([3]; first compound 0.1581 µM): 0.805 | relative viability ([3]; first compound 0.5 µM): 0.736 | relative viability ([3]; first compound 1.581 µM): 0.765 | relative viability ([3]; first compound 5 µM): 0.775 | relative viability ([4]; first compound 0.05 µM): 0.47 | relative viability ([4]; first compound 0.1581 µM): 0.493 | relative viability ([4]; first compound 0.5 µM): 0.44 | relative viability ([4]; first compound 1.581 µM): 0.359 | relative viability ([4]; first compound 5 µM): 0.411
